Measurements from the supplement of paper PMC11451515.

Tested on: P12-Ichikawa
Assay: cell viability relative to DMSO control; higher = less cytotoxic
Details: 48 h
How it was run: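 NOMO1 or SEM cells were plated at 500 cells/well and P12-Ichikawa cells at 1000 cells/well in 1536-well plates (5 μl), after each leukemia line had been adapted for at least four passages in each medium. Pin dosing delivered library compounds in DMSO at 11 threefold concentrations, 47 μM to 0.79 nM. CellTiter-Glo One luminescence was read after 48 h at 37°C. Viability is reported as a per-plate percentage of DMSO wells, with cell-free wells as background.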

[1] = HPLM + 10% dialyzed FBS, 0.000781 µM
[2] = HPLM + 10% dialyzed FBS, 0.00234 µM
[3] = HPLM + 10% dialyzed FBS, 0.00702 µM
[4] = HPLM + 10% dialyzed FBS, 0.0211 µM
[5] = HPLM + 10% dialyzed FBS, 0.0632 µM
[6] = HPLM + 10% dialyzed FBS, 0.19 µM
[7] = HPLM + 10% dialyzed FBS, 0.569 µM
[8] = HPLM + 10% dialyzed FBS, 1.71 µM
[9] = HPLM + 10% dialyzed FBS, 5.12 µM
[10] = HPLM + 10% dialyzed FBS, 15.4 µM
[11] = HPLM + 10% dialyzed FBS, 46.1 µM
[12] = RPMI 5 mM glucose + 10% FBS, 0.000781 µM
[13] = RPMI 5 mM glucose + 10% FBS, 0.00234 µM
[14] = RPMI 5 mM glucose + 10% FBS, 0.00702 µM
[15] = RPMI 5 mM glucose + 10% FBS, 0.0211 µM
[16] = RPMI 5 mM glucose + 10% FBS, 0.0632 µM
[17] = RPMI 5 mM glucose + 10% FBS, 0.19 µM
[18] = RPMI 5 mM glucose + 10% FBS, 0.569 µM
[19] = RPMI 5 mM glucose + 10% FBS, 1.71 µM
[20] = RPMI 5 mM glucose + 10% FBS, 5.12 µM
[21] = RPMI 5 mM glucose + 10% FBS, 15.4 µM
[22] = RPMI 5 mM glucose + 10% FBS, 46.1 µM
[23] = RPMI 5 mM glucose + 10% dialyzed FBS, 0.000781 µM
[24] = RPMI 5 mM glucose + 10% dialyzed FBS, 0.00234 µM
[25] = RPMI 5 mM glucose + 10% dialyzed FBS, 0.00702 µM
[26] = RPMI 5 mM glucose + 10% dialyzed FBS, 0.0211 µM
[27] = RPMI 5 mM glucose + 10% dialyzed FBS, 0.0632 µM
[28] = RPMI 5 mM glucose + 10% dialyzed FBS, 0.19 µM
[29] = RPMI 5 mM glucose + 10% dialyzed FBS, 0.569 µM
[30] = RPMI 5 mM glucose + 10% dialyzed FBS, 1.71 µM
[31] = RPMI 5 mM glucose + 10% dialyzed FBS, 5.12 µM
[32] = RPMI 5 mM glucose + 10% dialyzed FBS, 15.4 µM
[33] = RPMI 5 mM glucose + 10% dialyzed FBS, 46.1 µM

SMILES | cell viability [1] [%] | cell viability [2] [%] | cell viability [3] [%] | cell viability [4] [%] | cell viability [5] [%] | cell viability [6] [%] | cell viability [7] [%] | cell viability [8] [%] | cell viability [9] [%] | cell viability [10] [%] | cell viability [11] [%] | cell viability [12] [%] | cell viability [13] [%] | cell viability [14] [%] | cell viability [15] [%] | cell viability [16] [%] | cell viability [17] [%] | cell viability [18] [%] | cell viability [19] [%] | cell viability [20] [%] | cell viability [21] [%] | cell viability [22] [%] | cell viability [23] [%] | cell viability [24] [%] | cell viability [25] [%] | cell viability [26] [%] | cell viability [27] [%] | cell viability [28] [%] | cell viability [29] [%] | cell viability [30] [%] | cell viability [31] [%] | cell viability [32] [%] | cell viability [33] [%]
COc1ccc(C[C@@H](C)[C@@H](C)Cc2ccc(OC)c(OC)c2)cc1OC | 92.6 | 105 | 102 | 110 | 99.4 | 102 | 97.7 | 83 | 6.15 | 5.92 | 2.61 | 97 | 103 | 98.3 | 110 | 111 | 99.7 | 92.4 | 81 | 4.82 | 4.04 | 2.42 | 95.4 | 102 | 105 | 107 | 104 | 90.6 | 93.4 | 81.9 | 6.68 | 4.98 | 2.21
Cc1ccc(NC(=O)c2ccc(CN3CCN(C)CC3)cc2)cc1Nc1nc(-c2cccnc2)cs1 | 102 | 104 | 106 | 103 | 106 | 102 | 101 | 92.7 | 70.5 | 57 | 41.3 | 105 | 101 | 110 | 113 | 100 | 111 | 89.1 | 89.7 | 63 | 50.4 | 49.7 | 108 | 112 | 109 | 109 | 110 | 108 | 95.5 | 95.1 | 62.1 | 46.1 | 45.4
COC1=C(N2CCNC(C)C2)C(=CC3=C1N(\C=C(C(O)=O)/C3=O)C4CC4)F (stereo not given) | 101 | 105 | 112 | 101 | 91.1 | 111 | 106 | 106 | 98.1 | 101 | 87.5 | 102 | 105 | 108 | 99.6 | 88.2 | 105 | 100 | 106 | 17.8 | 96.7 | 76.9 | 94.5 | 101 | 99.2 | 104 | 95.8 | 98.1 | 99.9 | 104 | 101 | 99.8 | 78.6
NC(=O)c1cnc(N[C@@H]2CCCC[C@@H]2N)nc1Nc1cccc(-n2nccn2)c1 | 111 | 117 | 126 | 124 | 122 | 132 | 136 | 128 | 123 | 133 | 77.6 | – | – | – | – | – | – | – | – | – | – | – | – | – | – | – | – | – | – | – | – | – | –
CC/1=C/C(=O)N(O)/C(=C1)C2CCCCC2 | 115 | 118 | 123 | 132 | 130 | 125 | 121 | 127 | 113 | 74.8 | 28.5 | – | – | – | – | – | – | – | – | – | – | – | – | – | – | – | – | – | – | – | – | – | –
Cc1ccccc1N1C(=O)c2cc([S+](N)(=O)[O-])c(Cl)cc2NC1C (stereo not given) | 134 | 121 | 119 | 132 | 125 | 125 | 109 | 120 | 119 | 103 | 110 | 122 | 121 | 131 | 129 | 137 | 134 | 130 | 124 | 109 | 98.3 | 129 | – | – | – | – | – | – | – | – | – | – | –
OC1=C(O)C2=C(\C=C/C(=O)O2)C=C1 | 99 | 104 | 114 | 107 | 101 | 119 | 114 | 117 | 114 | 107 | 81.1 | 109 | 115 | 118 | 110 | 99.4 | 113 | 124 | 116 | 112 | 109 | 68 | 95.1 | 109 | 104 | 104 | 101 | 97.5 | 98 | 107 | 105 | 103 | 58.3
C[C@]\12CC[C@H](O)CC1=C/CC3C2CC[C@@]\4(C)C3C\C=C4[N]5C=NC6=C5C=CC=C6 (stereo not given in full) | 94.2 | 95.5 | 102 | 106 | 103 | 105 | 105 | 104 | 107 | 106 | 107 | 82.9 | 94.2 | 93.8 | 112 | 107 | 106 | 105 | 105 | 102 | 99.5 | 98.5 | 89.6 | 97.4 | 103 | 108 | 103 | 102 | 103 | 100 | 107 | 104 | 102
COC[C@H]1OC(=O)C2=COC3=C2[C@@]1(C)\C4=C(C5CCC(=O)[C@@]5(C)C[C@H]4OC(C)=O)/C3=O (stereo not given in full) | 93.1 | 98.8 | 104 | 11.9 | 108 | 113 | 107 | 107 | 110 | 99.1 | 101 | 83.8 | 99.7 | 98.7 | 12.2 | 98.1 | 93.6 | 97.3 | 101 | 94.3 | 97 | 82 | 85.8 | 90 | 97.6 | 32.6 | 99.8 | 101 | 95.1 | 96.4 | 102 | 93.7 | 77
CCc1cncnc1N1CCN(Cc2nc3cc(C(F)(F)F)ccc3[nH]2)CC1 | 103 | 106 | 100 | 102 | 103 | 102 | 94.1 | 97.9 | 85.7 | 84 | 58 | 101 | 97.6 | 95.2 | 97.2 | 101 | 88.8 | 97.2 | 101 | 88.1 | 74.9 | 44.9 | 96.6 | 105 | 102 | 103 | 95.6 | 97.3 | 96.4 | 101 | 86.5 | 84.7 | 55.3
Cc1nc(NC(=O)N2CCC[C@H]2C(N)=O)sc1-c1ccnc(C(C)(C)C(F)(F)F)c1 | 96.4 | 100 | 97.1 | 93.3 | 97.7 | 92.4 | 89.8 | 87.6 | 72.2 | 62.9 | 83.2 | 89.4 | 89.2 | 95.4 | 93.7 | 90.6 | 86.9 | 79.6 | 76.2 | 57.5 | 48.3 | 77.8 | 97.9 | 92.4 | 94.4 | 91.8 | 93.4 | 81.5 | 86.7 | 78.9 | 63.7 | 51.6 | 83.3
COc1c(C)cnc(Cn2cnc3c(Cl)nc(N)nc32)c1C | 109 | 114 | 106 | 125 | 118 | 104 | 85.1 | 67.9 | 55.1 | 50.2 | 50.5 | 116 | 123 | 125 | 125 | 124 | 94.1 | 61.6 | 50.5 | 48 | 40.9 | 38.1 | 110 | 121 | 119 | 116 | 115 | 99.8 | 58.3 | 47.8 | 45.1 | 40.9 | 37.9
CC(=O)O.Cc1c(-c2ccc(O)cc2)n(Cc2ccc(OCCN3CCCCCC3)cc2)c2ccc(O)cc12 | 103 | 101 | 99.2 | 98.1 | 101 | 111 | 101 | 106 | 106 | 101 | 100 | 92.3 | 92.5 | 92.4 | 87.6 | 99.3 | 103 | 96.1 | 109 | 101 | 100 | 101 | 89.2 | 94.5 | 96.3 | 94.5 | 92.5 | 98.9 | 98.3 | 95.4 | 113 | 104 | 100
COc1cnc(N[S+](=O)([O-])c2ccc(N)cc2)nc1 | 107 | 118 | 113 | 119 | 122 | 125 | 134 | 126 | 117 | 90.1 | 45.1 | 101 | 109 | 109 | 117 | 118 | 118 | 126 | 130 | 117 | 102 | 59.2 | 111 | 108 | 122 | 119 | 127 | 118 | 128 | 124 | 119 | 104 | 67
CC(C)C(C)/C=C/C(C)C1CCC2C3=CC=C4CC(O)CCC4(C)C3CCC21C (stereo not given) | 110 | 105 | 97.8 | 109 | 99.5 | 96.6 | 111 | 94.4 | 106 | 97.8 | 97.3 | 99.1 | 99.4 | 98.3 | 106 | 96.7 | 98.4 | 102 | 97.6 | 93.5 | 94.5 | 92.2 | 91.1 | 94.8 | 102 | 97.1 | 103 | 96.7 | 97.5 | 96.8 | 92.8 | 91 | 89.4
